Test results taken from ChEMBL document CHEMBL1152560, “Substituted 2-arylbenzothiazoles as kinase inhibitors: hit-to-lead optimization” (Bioorg Med Chem, 2009).

Experiments:
[1] = biological target: Mitogen-activated protein kinase kinase kinase 8 (Homo sapiens) (UniProt P41279); assay: Residual activity of COT at 1 uM by microplate scintillation counting
[2] = biological target: Death-associated protein kinase 2 (Homo sapiens) (UniProt Q9UIK4); assay: Residual activity of DAPK2 at 1 uM by microplate scintillation counting
[3] = biological target: Mitogen-activated protein kinase 1 (Homo sapiens) (UniProt P28482); assay: Residual activity of ERK2 at 0.1 uM by microplate scintillation counting
[4] = biological target: Receptor-interacting serine/threonine-protein kinase 2 (Homo sapiens) (UniProt O43353); assay: Residual activity of RIPK2 at 1 uM by microplate scintillation counting
Sequence of Receptor-interacting serine/threonine-protein kinase 2 (Homo sapiens) (O43353 whole entry): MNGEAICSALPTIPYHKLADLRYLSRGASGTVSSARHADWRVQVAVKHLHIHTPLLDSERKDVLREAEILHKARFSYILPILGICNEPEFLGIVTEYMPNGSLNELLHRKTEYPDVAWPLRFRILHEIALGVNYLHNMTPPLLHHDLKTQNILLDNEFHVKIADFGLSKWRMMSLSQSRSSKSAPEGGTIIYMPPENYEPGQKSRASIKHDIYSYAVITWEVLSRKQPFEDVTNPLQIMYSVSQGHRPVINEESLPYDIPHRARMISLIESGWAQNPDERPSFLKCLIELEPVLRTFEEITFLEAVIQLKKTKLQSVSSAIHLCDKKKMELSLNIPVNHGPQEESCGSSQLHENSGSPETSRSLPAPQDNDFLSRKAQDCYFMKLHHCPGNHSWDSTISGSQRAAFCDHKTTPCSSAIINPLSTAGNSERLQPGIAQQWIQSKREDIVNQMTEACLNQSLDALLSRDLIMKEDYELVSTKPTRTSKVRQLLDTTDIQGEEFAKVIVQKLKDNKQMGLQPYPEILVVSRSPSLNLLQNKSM

[5] = biological target: T1, Serine/threonine-protein kinase 17A (Homo sapiens) (UniProt Q9UEE5); assay: Residual activity of STK17A at 1 uM by microplate scintillation counting
T1 sequence (whole entry): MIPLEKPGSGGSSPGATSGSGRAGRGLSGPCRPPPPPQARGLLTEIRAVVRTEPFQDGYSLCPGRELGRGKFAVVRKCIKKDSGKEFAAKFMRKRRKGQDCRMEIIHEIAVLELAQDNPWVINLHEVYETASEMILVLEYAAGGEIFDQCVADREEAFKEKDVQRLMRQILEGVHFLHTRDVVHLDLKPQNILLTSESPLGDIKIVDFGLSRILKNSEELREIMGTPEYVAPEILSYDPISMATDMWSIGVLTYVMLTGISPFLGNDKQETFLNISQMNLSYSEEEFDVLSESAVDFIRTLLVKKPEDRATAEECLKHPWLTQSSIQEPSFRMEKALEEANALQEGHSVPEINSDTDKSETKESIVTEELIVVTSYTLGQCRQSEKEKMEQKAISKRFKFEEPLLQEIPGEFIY

[6] = biological target: T2, Serine/threonine-protein kinase DCLK2 (Homo sapiens) (UniProt Q8N568); assay: Residual activity of DCAMKL2 at 10 uM by microplate scintillation counting
T2 sequence (whole entry): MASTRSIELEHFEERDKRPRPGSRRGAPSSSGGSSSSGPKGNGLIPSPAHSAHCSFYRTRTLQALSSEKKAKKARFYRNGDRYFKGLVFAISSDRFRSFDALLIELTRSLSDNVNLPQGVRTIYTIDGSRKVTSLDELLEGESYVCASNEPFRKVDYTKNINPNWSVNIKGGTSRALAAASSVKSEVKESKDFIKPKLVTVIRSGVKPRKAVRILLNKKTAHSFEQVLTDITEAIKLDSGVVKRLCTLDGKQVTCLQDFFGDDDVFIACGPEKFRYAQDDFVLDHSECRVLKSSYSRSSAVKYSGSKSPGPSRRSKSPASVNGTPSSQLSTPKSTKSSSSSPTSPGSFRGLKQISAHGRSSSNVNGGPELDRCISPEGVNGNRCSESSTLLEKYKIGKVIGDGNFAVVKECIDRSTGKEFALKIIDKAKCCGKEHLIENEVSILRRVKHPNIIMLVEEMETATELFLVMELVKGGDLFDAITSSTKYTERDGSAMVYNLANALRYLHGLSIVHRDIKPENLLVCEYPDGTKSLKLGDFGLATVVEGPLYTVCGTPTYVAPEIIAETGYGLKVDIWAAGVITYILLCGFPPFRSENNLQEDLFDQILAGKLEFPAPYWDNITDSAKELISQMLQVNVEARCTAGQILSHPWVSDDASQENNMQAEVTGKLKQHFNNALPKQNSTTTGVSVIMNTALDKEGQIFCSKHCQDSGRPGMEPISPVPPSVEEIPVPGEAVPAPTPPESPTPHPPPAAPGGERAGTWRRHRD

[7] = test system: Fibroblast growth factor receptor 1 (Homo sapiens), P11362 [V561M]; assay: Residual activity of FGFR1 V561M mutant at 10 uM by microplate scintillation counting
[8] = biological target: Serine/threonine-protein kinase B-raf (Homo sapiens) (UniProt P15056); assay: Residual activity of Wild type B-RAF at 1 uM by microplate scintillation counting
[9] = biological target: Tyrosine-protein kinase receptor UFO (Homo sapiens) (UniProt P30530); assay: Residual activity of AXL at 10 uM by microplate scintillation counting
[10] = biological target: Protein-tyrosine kinase 6 (Homo sapiens) (UniProt Q13882); assay: Residual activity of BRK at 10 uM by microplate scintillation counting
[11] = biological target: Cyclin-dependent kinase 5/CDK5 activator 1 (Homo sapiens) (UniProt Q00535+Q15078); assay: Residual activity of CDK5/p25NCK at 10 uM by microplate scintillation counting; type: protein-complex assay
[12] = biological target: CDC42BPA protein (Homo sapiens) (UniProt B9EGA7); assay: Residual activity of CDC42BPA at 1 uM by microplate scintillation counting
Sequence of CDC42BPA protein (Homo sapiens) (B9EGA7 as listed by the source): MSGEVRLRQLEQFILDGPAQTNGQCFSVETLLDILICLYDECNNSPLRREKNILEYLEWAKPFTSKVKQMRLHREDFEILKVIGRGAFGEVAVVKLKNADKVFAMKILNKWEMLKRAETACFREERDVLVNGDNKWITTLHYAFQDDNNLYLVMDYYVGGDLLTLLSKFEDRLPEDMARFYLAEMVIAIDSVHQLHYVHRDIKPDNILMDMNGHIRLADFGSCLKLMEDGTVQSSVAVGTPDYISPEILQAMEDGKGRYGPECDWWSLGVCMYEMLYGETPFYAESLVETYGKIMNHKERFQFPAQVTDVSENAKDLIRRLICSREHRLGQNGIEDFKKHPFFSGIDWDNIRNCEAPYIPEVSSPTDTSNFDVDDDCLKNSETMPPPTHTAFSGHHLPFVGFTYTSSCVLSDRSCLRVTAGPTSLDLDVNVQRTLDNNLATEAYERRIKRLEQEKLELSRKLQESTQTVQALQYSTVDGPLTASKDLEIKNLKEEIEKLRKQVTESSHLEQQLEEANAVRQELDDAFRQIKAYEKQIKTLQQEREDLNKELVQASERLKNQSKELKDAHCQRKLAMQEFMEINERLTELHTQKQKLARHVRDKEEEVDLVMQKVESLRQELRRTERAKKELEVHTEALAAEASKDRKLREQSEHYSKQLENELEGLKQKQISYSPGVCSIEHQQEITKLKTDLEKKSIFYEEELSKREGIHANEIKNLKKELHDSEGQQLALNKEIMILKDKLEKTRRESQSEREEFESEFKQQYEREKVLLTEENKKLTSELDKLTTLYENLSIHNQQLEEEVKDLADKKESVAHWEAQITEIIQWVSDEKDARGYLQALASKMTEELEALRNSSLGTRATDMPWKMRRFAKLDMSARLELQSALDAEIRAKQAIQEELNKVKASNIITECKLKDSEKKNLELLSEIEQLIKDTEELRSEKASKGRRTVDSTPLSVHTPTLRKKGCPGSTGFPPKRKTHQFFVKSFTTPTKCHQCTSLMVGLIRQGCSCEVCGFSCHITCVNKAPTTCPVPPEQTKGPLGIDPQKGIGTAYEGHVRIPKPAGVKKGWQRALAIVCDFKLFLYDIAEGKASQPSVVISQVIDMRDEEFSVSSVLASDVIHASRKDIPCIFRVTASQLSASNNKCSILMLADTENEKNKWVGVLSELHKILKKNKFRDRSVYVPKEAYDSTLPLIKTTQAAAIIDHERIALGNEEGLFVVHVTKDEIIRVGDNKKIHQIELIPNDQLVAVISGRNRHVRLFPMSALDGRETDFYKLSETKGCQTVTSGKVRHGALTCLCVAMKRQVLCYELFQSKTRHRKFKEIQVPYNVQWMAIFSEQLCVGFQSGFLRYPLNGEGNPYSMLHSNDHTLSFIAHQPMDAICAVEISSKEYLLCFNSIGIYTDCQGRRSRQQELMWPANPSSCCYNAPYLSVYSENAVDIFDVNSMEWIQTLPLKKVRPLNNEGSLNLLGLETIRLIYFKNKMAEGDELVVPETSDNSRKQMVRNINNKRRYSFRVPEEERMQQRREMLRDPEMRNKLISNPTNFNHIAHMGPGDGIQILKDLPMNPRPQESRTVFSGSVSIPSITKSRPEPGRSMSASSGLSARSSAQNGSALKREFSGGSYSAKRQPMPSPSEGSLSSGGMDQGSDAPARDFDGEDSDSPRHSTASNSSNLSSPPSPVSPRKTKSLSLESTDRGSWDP

[13] = biological target: Cyclin-dependent kinase 2/cyclin A (Homo sapiens) (UniProt P24941+P20248+P78396); assay: Residual activity of CDK2/Cyclin A at 1 uM by microplate scintillation counting; type: protein-complex assay
[14] = biological target: Tyrosine-protein kinase ABL1 (Homo sapiens) (UniProt P00519); assay: Residual activity of wild type ABL1 at 0.1 uM by microplate scintillation counting
Sequence of Tyrosine-protein kinase ABL1 (Homo sapiens) (P00519 whole entry): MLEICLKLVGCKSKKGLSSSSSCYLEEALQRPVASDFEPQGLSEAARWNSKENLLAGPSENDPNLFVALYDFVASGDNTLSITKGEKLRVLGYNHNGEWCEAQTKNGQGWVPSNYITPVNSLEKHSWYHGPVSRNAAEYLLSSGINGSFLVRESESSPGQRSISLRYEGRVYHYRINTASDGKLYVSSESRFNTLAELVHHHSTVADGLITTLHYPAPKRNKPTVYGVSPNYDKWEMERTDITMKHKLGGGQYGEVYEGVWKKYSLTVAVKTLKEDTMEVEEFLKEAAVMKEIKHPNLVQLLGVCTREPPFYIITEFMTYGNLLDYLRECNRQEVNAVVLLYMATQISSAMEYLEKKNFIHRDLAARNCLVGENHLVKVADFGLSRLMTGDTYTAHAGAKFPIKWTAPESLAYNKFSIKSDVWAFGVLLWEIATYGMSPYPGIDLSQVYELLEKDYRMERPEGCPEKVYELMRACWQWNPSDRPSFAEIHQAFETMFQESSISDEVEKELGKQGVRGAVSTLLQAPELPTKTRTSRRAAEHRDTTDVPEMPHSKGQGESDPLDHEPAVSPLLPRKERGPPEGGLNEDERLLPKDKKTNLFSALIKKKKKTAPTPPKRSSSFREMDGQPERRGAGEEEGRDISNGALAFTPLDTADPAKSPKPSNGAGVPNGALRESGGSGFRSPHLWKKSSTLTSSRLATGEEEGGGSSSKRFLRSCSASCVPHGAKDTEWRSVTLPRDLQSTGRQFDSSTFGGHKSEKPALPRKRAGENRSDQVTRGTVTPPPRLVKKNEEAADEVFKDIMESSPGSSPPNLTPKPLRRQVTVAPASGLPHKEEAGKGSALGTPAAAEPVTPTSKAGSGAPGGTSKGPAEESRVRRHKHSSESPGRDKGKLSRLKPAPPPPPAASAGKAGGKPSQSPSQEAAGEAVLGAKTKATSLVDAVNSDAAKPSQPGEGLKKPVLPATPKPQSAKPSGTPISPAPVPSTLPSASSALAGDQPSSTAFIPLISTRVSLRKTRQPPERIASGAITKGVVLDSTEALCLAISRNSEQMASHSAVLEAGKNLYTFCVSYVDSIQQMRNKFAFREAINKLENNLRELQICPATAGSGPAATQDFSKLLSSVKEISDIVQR

[15] = biological target: Protein kinase C delta type (Homo sapiens) (UniProt Q05655); assay: Residual activity of PKCdelta at 0.1 uM by microplate scintillation counting
[16] = biological target: T3, Serine/threonine-protein kinase Sgk1 (Homo sapiens) (UniProt O00141); assay: Residual activity of SGK1 at 0.1 uM by microplate scintillation counting
T3 sequence (whole entry): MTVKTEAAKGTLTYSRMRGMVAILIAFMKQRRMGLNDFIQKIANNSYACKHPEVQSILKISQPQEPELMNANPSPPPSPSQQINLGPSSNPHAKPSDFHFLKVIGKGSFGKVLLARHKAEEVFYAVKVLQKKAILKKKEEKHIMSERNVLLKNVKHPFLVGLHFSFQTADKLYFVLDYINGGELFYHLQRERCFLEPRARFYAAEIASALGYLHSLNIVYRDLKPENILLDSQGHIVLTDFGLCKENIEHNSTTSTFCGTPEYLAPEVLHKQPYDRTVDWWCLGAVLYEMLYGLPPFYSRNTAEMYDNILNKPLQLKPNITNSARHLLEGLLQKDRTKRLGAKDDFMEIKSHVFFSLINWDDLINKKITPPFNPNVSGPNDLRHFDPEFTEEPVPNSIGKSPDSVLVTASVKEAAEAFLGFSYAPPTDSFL

[17] = biological target: Tyrosine-protein kinase SYK (Homo sapiens) (UniProt P43405); assay: Residual activity of SYK at 0.1 uM by microplate scintillation counting
Angiopoietin-1 receptor = Angiopoietin-1 receptor (Homo sapiens, UniProt Q02763); assay: Residual activity of TIE2 at 0.1 uM by microplate scintillation counting
Sequence of Angiopoietin-1 receptor (Q02763 whole entry): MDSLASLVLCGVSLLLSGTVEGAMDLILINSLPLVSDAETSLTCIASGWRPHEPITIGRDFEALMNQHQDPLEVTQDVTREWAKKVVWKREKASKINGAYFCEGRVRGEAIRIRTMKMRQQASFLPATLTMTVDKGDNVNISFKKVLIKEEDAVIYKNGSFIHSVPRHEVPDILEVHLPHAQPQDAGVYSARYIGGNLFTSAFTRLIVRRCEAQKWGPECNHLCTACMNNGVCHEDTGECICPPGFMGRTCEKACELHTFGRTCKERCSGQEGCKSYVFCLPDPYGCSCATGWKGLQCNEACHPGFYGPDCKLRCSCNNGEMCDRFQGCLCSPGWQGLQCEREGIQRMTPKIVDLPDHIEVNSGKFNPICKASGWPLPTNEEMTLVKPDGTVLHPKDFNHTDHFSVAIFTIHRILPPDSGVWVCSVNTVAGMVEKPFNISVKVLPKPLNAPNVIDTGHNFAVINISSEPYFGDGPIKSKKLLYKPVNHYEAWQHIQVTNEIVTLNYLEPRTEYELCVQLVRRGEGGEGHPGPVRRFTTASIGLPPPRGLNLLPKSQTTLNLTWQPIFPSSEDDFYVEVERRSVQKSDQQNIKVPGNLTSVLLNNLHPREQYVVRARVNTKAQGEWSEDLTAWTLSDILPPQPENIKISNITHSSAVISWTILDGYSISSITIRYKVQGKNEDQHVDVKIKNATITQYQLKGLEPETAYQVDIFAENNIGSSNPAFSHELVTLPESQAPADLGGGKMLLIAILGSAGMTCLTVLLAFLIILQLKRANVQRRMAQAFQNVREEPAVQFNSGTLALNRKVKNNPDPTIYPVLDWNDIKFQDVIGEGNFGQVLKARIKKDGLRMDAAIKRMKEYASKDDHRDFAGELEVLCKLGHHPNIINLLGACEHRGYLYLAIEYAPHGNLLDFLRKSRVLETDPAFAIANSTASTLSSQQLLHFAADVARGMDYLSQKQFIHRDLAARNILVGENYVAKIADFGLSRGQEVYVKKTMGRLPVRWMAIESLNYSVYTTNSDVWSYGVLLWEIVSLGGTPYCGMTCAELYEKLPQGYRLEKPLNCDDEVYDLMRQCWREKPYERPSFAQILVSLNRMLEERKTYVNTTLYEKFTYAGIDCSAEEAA

Sequence of Mitogen-activated protein kinase kinase kinase 8 (Homo sapiens) (P41279 whole entry): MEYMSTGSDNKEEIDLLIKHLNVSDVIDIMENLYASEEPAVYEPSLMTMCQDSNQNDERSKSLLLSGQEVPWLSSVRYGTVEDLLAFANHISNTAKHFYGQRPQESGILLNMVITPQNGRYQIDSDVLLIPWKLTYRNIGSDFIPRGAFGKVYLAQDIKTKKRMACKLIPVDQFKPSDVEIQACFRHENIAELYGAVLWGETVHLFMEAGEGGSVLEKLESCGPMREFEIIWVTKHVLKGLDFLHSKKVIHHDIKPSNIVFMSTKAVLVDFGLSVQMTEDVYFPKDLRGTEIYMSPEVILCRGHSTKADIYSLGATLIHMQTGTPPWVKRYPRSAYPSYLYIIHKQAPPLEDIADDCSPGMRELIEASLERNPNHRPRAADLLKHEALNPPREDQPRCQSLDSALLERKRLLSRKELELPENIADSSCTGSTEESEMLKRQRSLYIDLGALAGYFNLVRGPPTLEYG

Row | residual activity [1] [%] | residual activity [3] [%] | residual activity [4] [%] | residual activity [5] [%] | residual activity [6] [%] | residual activity [7] [%] | residual activity [8] [%] | residual activity [9] [%] | residual activity [10] [%] | residual activity [11] [%] | residual activity [12] [%] | residual activity [13] [%] | residual activity [14] [%] | residual activity [15] [%] | residual activity [16] [%] | residual activity [17] [%] | residual activity (Angiopoietin-1 receptor) [%] | Structure (SMILES) | residual activity [2] [%]
1 | 73 | 78 | 29 | 67 | 97 | 47 | 77 | 57 | 0 | 117 | 117 | 96 | 97 | 88 | 96 | 103 | 50 | COc1cc2c(Oc3ccc(-c4nc5ccccc5s4)cc3)ncnc2cc1OCCCN1CCCC1 | 92
2 | 77 | 96 | 29 | 90 | 115 | 26 | 83 | 54 | 0 | 116 | 89 | 97 | 100 | 95 | 98 | 97 | 53 | COc1cc2c(Oc3ccc(-c4nc5ccccc5s4)cc3F)ncnc2cc1OCCCN1CCN(C)CC1 | 90
3 | -18 | 85 | 25 | 62 | 93 | 32 | 79 | 125 | 1 | 112 | 117 | 96 | 94 | 93 | 85 | 96 | 38 | COc1cc2c(Oc3ccc(-c4nc5ccccc5s4)cc3)ncnc2cc1OCCCN1CCN(C)CC1 | 79
